The values below come from patent US8476255B2, “Histone deacetylase inhibitors” (Orchid Chemicals & Pharmaceuticals Limited, priority 2007, dated 2013).

The test system of assay [1] is HDAC (Mouse Liver Extract). The experiment in a line: HDAC inhibition assay using Boc-Lys(Ac)-AMC substrate. In kind it is biochemical. Conditions: mouse liver enzyme. The method in brief: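 Released AMC measured at 360 nm excitation, 460 nm emission after 15-30 min trypsin development at 37° C. Preceding deacetylation: mouse liver extract with acetylated-lysine AMC substrate, 30 min at 37° C after 5-min preincubation; blanks were buffer alone and substrate alone.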

In the next assay the test system is U251 (glioma) cells. The experiment in a line: Anti-cancer screen (MTT), U251. In kind it is cell-based. Conditions: Homo sapiens, U-251, U251, 48 hours, MTT; for GI50: read-out: Cell growth inhibition U251 (Glioma) GI50; for IC (TGI): read-out: Cell growth inhibition U251 (Glioma) TGI; for LC50 (concentration giving 50% net cell kill relative to the time-zero cell count): read-out: Cell growth inhibition U251 (Glioma) LC50. The method in brief: (§1)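 Cells in DMEM with 10% FBS were seeded for 24 h, then exposed for 48 h to compounds at 0.01, 0.1, 1, 10 and 100 μM final, in triplicate. Viability was read by MTT (3 h, A570 after DMSO solubilisation), referenced to a pre-dosing T0 plate, with SAHA as standard.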

A further assay deals with HCT 116 (colon) cells. The experiment in a line: Anti-cancer screen (MTT), HCT 116. Conditions: Homo sapiens, HCT-116, HCT116, 48 hours, MTT; for GI50: read-out: Cell growth inhibition HCT116 (Colon) GI50; for CC50: read-out: Cell growth inhibition HCT116 (Colon) LC50; for IC (TGI): read-out: Cell growth inhibition HCT116 (Colon) TGI. It counts as cell-based. The method in brief: as §1

In assay [2] the test system is NCIH460, HCT116 and U251 cells. The assay is described as follows: Anti-cancer screen, mean GI50 over cell lines. It counts as cell-based. Conditions: mean over cell lines; read-out: Cell growth inhibition Mean GI50. The method in brief:
as §1

In a further assay the test system is NCIH460 (lung) cells. The assay is described as follows: Anti-cancer screen (MTT), NCIH460. In kind it is cell-based. Conditions: Homo sapiens, NCI-H460, NCIH460, 48 hours, MTT; for GI50: read-out: Cell growth inhibition NCIH460 (Lung) GI50; for IC (TGI): read-out: Cell growth inhibition NCIH460 (Lung) TGI; for LC50: read-out: Cell growth inhibition NCIH460 (Lung) LC50. The method in brief: as §1

One may read the GI50 as the concentration that inhibits growth by half. One may read the LC50 as the concentration that kills 50% of the test population. The IC50 is the concentration needed to halve the response being measured.

With `CSc1ccc(/C=C(/C(=O)NCc2ccc(C(=O)Nc3ccccc3N)cc2)c2ccccc2F)cc1` [Compound 24, N-(2-Aminophenyl)-4-((3-(4-methylthiophenyl)-2-(2-fluorophenyl)acrylamido)methyl)benzamide], the “HDAC inhibition % (1 μM)” value in assay [1] was 41.3%. Moreover, in assay [1], the “HDAC inhibition % (10 μM)” value is 51.4%. Also, the concentration for 50% growth inhibition (GI50) in the assay on U251 (glioma) cells was found to be 8.5 µM; in the assay on HCT 116 (colon) cells it was 3800 nM; in assay [2], 5.8 µM; in the assay with NCIH460 (lung) cells, 5 µM. The figures for the IC (TGI) in the assay with U251 (glioma) cells, in the assay on HCT 116 (colon) cells and with NCIH460 (lung) cells were 30 µM, 12 µM and 32 µM, respectively. The CC50 in the assay on HCT 116 (colon) cells was more than 100 µM.
Take `CSc1ccc(/C=C(/C(=O)NCc2ccc(C(=O)Nc3ccccc3N)cc2)c2ccc(C)cc2)cc1` [Compound 25, N-(2-Aminophenyl)-4-((3-(4-methylthiophenyl)-2-(4-methylphenyl)acrylamido)methyl)benzamide]: in assay [1], the “HDAC inhibition % (1 μM)” value was determined as 63.8% and the “HDAC inhibition % (10 μM)” value came to 68.1%. For the same molecule, in the assay on U251 (glioma) cells, the 50% growth inhibitory concentration (GI50) came out at 6.5 µM, the LC50 (concentration giving 50% net cell kill relative to the time-zero cell count) worked out at 89 µM and the IC (TGI) was 37 µM. Besides, in the assay with HCT 116 (colon) cells, the GI50 was determined as 7500 nM, the CC50 is 90 µM and the IC (TGI) is 48 µM. The GI50 in assay [2] amounted to 11 µM. In the assay with NCIH460 (lung) cells, the concentration for 50% growth inhibition (GI50) was determined as 19 µM, the 50% lethal concentration (LC50) is 100 µM and the IC (TGI) was 58 µM.
Take `CSc1ccc(/C=C(/C(=O)NCc2ccc(C(=O)Nc3ccccc3N)cc2)c2ccsc2)cc1` [Compound 26, N-(2-Aminophenyl)-4-((3-(4-methylthiophenyl)-2-(thiophen-3-yl)acrylamido)methyl)benzamide]: in assay [1], the “HDAC inhibition % (1 μM)” value is listed as 34.1% and the “HDAC inhibition % (10 μM)” value was 42.6%. Besides, in the assay with U251 (glioma) cells, the GI50 was 50 µM, the LC50 (concentration giving 50% net cell kill relative to the time-zero cell count) is more than 100 µM and the IC (TGI) turned out to be 70 µM. Besides, in the assay with HCT 116 (colon) cells, the GI50 was 4000 nM, the CC50 was more than 100 µM and the IC (TGI) came to 15 µM. Besides, the GI50 in assay [2] was 35.3 µM. In the assay with NCIH460 (lung) cells, the GI50 stood at 52 µM, the LC50 was more than 100 µM and the IC (TGI) was more than 100 µM.
As for `COc1ccc(/C=C(/C(=O)NCc2ccc(C(=O)Nc3ccccc3N)cc2)c2ccccc2Cl)cc1OC` [Compound 30, N-(2-Aminophenyl)-4-((3-(3,4-dimethoxyphenyl)-2-(2-chlorophenyl)acrylamido)methyl)benzamide], in assay [1], the “HDAC inhibition % (1 μM)” value was 7.1% and the “HDAC inhibition % (10 μM)” value is on record as 30.1%. In the assay on U251 (glioma) cells, the GI50 was 1 µM, the LC50 (concentration giving 50% net cell kill relative to the time-zero cell count) was more than 100 µM and the IC (TGI) was more than 100 µM. Further, in the assay on HCT 116 (colon) cells, the GI50 came to 100000 nM, the CC50 is more than 100 µM and the IC (TGI) was more than 100 µM. Also, the concentration for 50% growth inhibition (GI50) in assay [2] was determined as 50.5 µM. Moreover, in the assay on NCIH460 (lung) cells, the GI50 is more than 100 µM, the 50% lethal concentration (LC50) is more than 100 µM and the IC (TGI) was more than 100 µM.
Consider `COC(=O)c1ccc(/C=C(/C(=O)NCc2ccc(C(=O)Nc3ccccc3N)cc2)c2cccc(Cl)c2)cc1` [Compound 33, N-(2-Aminophenyl)-4-((3-(4-carbmethoxyphenyl)-2-(3-chlorophenyl)acrylamido)methyl)benzamide], for which, in assay [1], the “HDAC inhibition % (1 μM)” value is listed as 34.4%, the “HDAC inhibition % (10 μM)” value is listed as 35.0% and half-maximal inhibition (IC50) required 7.8 µM. Further, in the assay on U251 (glioma) cells, the concentration for 50% growth inhibition (GI50) was found to be 0.2 µM, the LC50 (concentration giving 50% net cell kill relative to the time-zero cell count) was 4.5 µM and the IC (TGI) was 0.7 µM. Also, in the assay on HCT 116 (colon) cells, the 50% growth inhibitory concentration (GI50) was 20 nM, the CC50 came out at 80 µM and the IC (TGI) was 2 µM. Also, in assay [2], the GI50 worked out at 0.1 µM. In addition, in the assay with NCIH460 (lung) cells, the 50% growth inhibitory concentration (GI50) was 0.2 µM, the LC50 was determined as 60 µM and the IC (TGI) was determined as 11 µM.
For `COC(=O)c1ccc(/C=C(/C(=O)NCc2ccc(C(=O)Nc3ccccc3N)cc2)c2ccccc2F)cc1` [Compound 34, N-(2-Aminophenyl)-4-((3-(4-carbmethoxyphenyl)-2-(2-fluorophenyl)acrylamido)methyl)benzamide], in assay [1], the “HDAC inhibition % (1 μM)” value is reported as 23.1% and the “HDAC inhibition % (10 μM)” value turned out to be 42.3%. For the same molecule, in the assay with U251 (glioma) cells, the GI50 is 0.7 µM, the LC50 (concentration giving 50% net cell kill relative to the time-zero cell count) amounted to 65 µM and the IC (TGI) was 23 µM. Further, in the assay with HCT 116 (colon) cells, the GI50 is 1800 nM, the CC50 was more than 100 µM and the IC (TGI) amounted to 13 µM. Also, the GI50 in assay [2] was 4.2 µM. Also, in the assay on NCIH460 (lung) cells, the GI50 was 10.1 µM, the 50% lethal concentration (LC50) is more than 100 µM and the IC (TGI) worked out at 90 µM.
As for `COC(=O)c1ccc(/C=C(/C(=O)NCc2ccc(C(=O)Nc3ccccc3N)cc2)c2ccc(OC)cc2)cc1` [Compound 35, N-(2-Aminophenyl)-4-((3-(4-carbmethoxyphenyl)-2-(4-methoxyphenyl)acrylamido)methyl)benzamide], in assay [1], the “HDAC inhibition % (1 μM)” value was determined as 24.8% and the “HDAC inhibition % (10 μM)” value was determined as 41.1%. In the assay on U251 (glioma) cells, the 50% growth inhibitory concentration (GI50) was more than 100 µM, the LC50 (concentration giving 50% net cell kill relative to the time-zero cell count) is more than 100 µM and the IC (TGI) is more than 100 µM. Also, in the assay with HCT 116 (colon) cells, the GI50 came out at 2000 nM, the CC50 was more than 100 µM and the IC (TGI) is more than 100 µM. For the same molecule, the GI50 in assay [2] was 2 µM. In the assay on NCIH460 (lung) cells, the GI50 is more than 100 µM, the 50% lethal concentration (LC50) was more than 100 µM and the IC (TGI) was more than 100 µM.
`COC(=O)c1ccc(/C=C(/C(=O)NCc2ccc(C(=O)Nc3ccccc3N)cc2)c2cccs2)cc1` [Compound 36, N-(2-Aminophenyl)-4-((3-(4-carbmethoxyphenyl)-2-(thiophen-2-yl)acrylamido)methyl)benzamide]: in assay [1], the “HDAC inhibition % (1 μM)” value turned out to be 30.5% and the “HDAC inhibition % (10 μM)” value is listed as 31.9%. In the assay on U251 (glioma) cells, the GI50 came to 18 µM, the LC50 (concentration giving 50% net cell kill relative to the time-zero cell count) was found to be 90 µM and the IC (TGI) was 50 µM. In the assay on HCT 116 (colon) cells, the concentration for 50% growth inhibition (GI50) came to 700 nM, the CC50 was more than 100 µM and the IC (TGI) came to 35 µM. The GI50 in assay [2] came out at 12.9 µM. In the assay on NCIH460 (lung) cells, the GI50 amounted to 20 µM, the LC50 was more than 100 µM and the IC (TGI) was more than 100 µM.
As for `COc1ccc(/C=C(/C(=O)NCc2ccc(C(=O)Nc3ccccc3N)cc2)c2cccs2)cc1OC` [Compound 37, N-(2-Aminophenyl)-4-((3-(3,4-dimethoxyphenyl)-2-(thiophen-2-yl)acrylamido)methyl)benzamide], in assay [1], the “HDAC inhibition % (1 μM)” value worked out at 31.7%, the “HDAC inhibition % (10 μM)” value came out at 59.9% and the IC50 stood at 5 µM. In addition, in the assay with U251 (glioma) cells, the 50% growth inhibitory concentration (GI50) came to 2.6 µM, the LC50 (concentration giving 50% net cell kill relative to the time-zero cell count) stood at 51 µM and the IC (TGI) turned out to be 7 µM. In the assay with HCT 116 (colon) cells, the concentration for 50% growth inhibition (GI50) came to 1100 nM, the CC50 was determined as 80 µM and the IC (TGI) is 6 µM. Also, in assay [2], the 50% growth inhibitory concentration (GI50) is 1.9 µM. In the assay with NCIH460 (lung) cells, the GI50 worked out at 2 µM, the median lethal concentration (LC50) is 100 µM and the IC (TGI) came out at 6 µM.
With `COC(=O)c1ccc(/C=C(/C(=O)NCc2ccc(C(=O)Nc3ccccc3N)cc2)c2ccc(F)c(F)c2)cc1` [Compound 38, N-(2-Aminophenyl)-4-((3-(4-carbmethoxyphenyl)-2-(3,4-difluorophenyl)acrylamido)methyl)benzamide], in assay [1], the “HDAC inhibition % (1 μM)” value is listed as 20.6% and the “HDAC inhibition % (10 μM)” value was found to be 34.9%. For the same molecule, in the assay on U251 (glioma) cells, the GI50 turned out to be 15 µM, the LC50 (concentration giving 50% net cell kill relative to the time-zero cell count) was more than 100 µM and the IC (TGI) amounted to 70 µM. Besides, in the assay on HCT 116 (colon) cells, the concentration for 50% growth inhibition (GI50) was found to be 6500 nM, the CC50 is more than 100 µM and the IC (TGI) came to 80 µM. For the same molecule, in assay [2], the 50% growth inhibitory concentration (GI50) is 23.8 µM. In the assay with NCIH460 (lung) cells, the GI50 came out at 50 µM, the LC50 is more than 100 µM and the IC (TGI) was more than 100 µM.
`COc1ccc(/C=C(/C(=O)NCc2ccc(C(=O)Nc3ccccc3N)cc2)c2ccccc2)c(OC)c1` [Compound 39, N-(2-Aminophenyl)-4-((3-(2,4-dimethoxyphenyl)-2-phenylacrylamido)methyl)benzamide]: in assay [1], the “HDAC inhibition % (1 μM)” value came to 9.1% and the “HDAC inhibition % (10 μM)” value is reported as 18.9%. In the assay with U251 (glioma) cells, the GI50 came out at 3.2 µM, the LC50 (concentration giving 50% net cell kill relative to the time-zero cell count) is more than 100 µM and the IC (TGI) turned out to be 100 µM. Also, in the assay on HCT 116 (colon) cells, the GI50 stood at 700 nM, the CC50 is more than 100 µM and the IC (TGI) was 80 µM. In addition, the 50% growth inhibitory concentration (GI50) in assay [2] was found to be 2.4 µM. In the assay on NCIH460 (lung) cells, the GI50 stood at 3.2 µM, the LC50 was more than 100 µM and the IC (TGI) is more than 100 µM.
